The results in this text go back to US9388216B2, “Methods of treating reproductive cancer” (Medical Research Council, priority 2006, dated 2016).

Data set [1] concerns GnRH-induced PARP cleavage (caspase 3 activation) in HEK293/rGnRHR cells. As to the kind of experiment: Inhibition of GnRH-induced PARP cleavage by chemical inhibitors. To be noted: for remaining GnRH I-induced PARP cleavage, mean±S.E.M.: 100 nM GnRH I plus inhibitor; for remaining GnRH I-induced PARP cleavage, mean±S.E.M. / remaining GnRH II-induced PARP cleavage, mean±S.E.M. / effect on GnRH-induced apoptosis / caspase 3 activation (in words): 48 h, complete medium; for remaining GnRH II-induced PARP cleavage, mean±S.E.M.: 100 nM GnRH II plus inhibitor.
Method: Cells were maintained in Dulbecco's modified Eagles medium (DMEM) (Sigma) supplemented with 10% fetal bovine serum, 2% glutamine and 1% penicillin (10,000 units/ml)/streptomycin (10,000 μg/ml) at 37° C. in a humidified 5% CO2 atmosphere. Cell treatments were performed at 37° C. in serum-containing medium with varying molecule concentrations and time periods, as indicated in the figure legends.
After stimulation of cells growing on 6-well plates, cell monolayers were placed on ice, washed twice in ice-cod Dulbecco's phosphate buffered saline (DPBS), and lysed in a NP-40-based solubilisation buffer (5 mM HEPES, 0.25 M NaCl, 0.5% NP-40, 10% glycerol, 2 mM EDTA pH8.0, 1 mM PMSF, 0.01 mg/ml leupeptin, 1 mM Na2VO4). Solubilised lysates were clarified by centrifugation at 15,000 rpm for 15 min. A 50 μl-aliquot of clarified whole-cell lysate was mixed with an equal volume of 2× Laemmli sample buffer, resolved by SDS-polyacrylamide gel electrophoresis (SDS-PAGE) and transferred to a PVDF membrane (NEN Life Sciences/PerkinElmer Life and Analytical Sciences; Beaconsfield, Bucks, UK). These membranes were blocked in a 4% bovine serum albumin, 50 mM Tris-HCl, pH 7.0, 0.05% Tween-20 and 0.05% NP-40 blocking solution. […] Apoptosis was assessed by incubating the PVDF membranes with a 1:1,000 dilution of anticleaved PARP rabbit polyclonal antibody at 4° C. with gentle shaking overnight. […] An alkaline phosphatase conjugated IgG (Sigma) was employed as a secondary antibody in all cases. Visualization of proteins was performed using enzyme-linked chemifluoresence (Amersham Biosciences Ltd.; St. Giles, Bucks, UK) and quantified using a Typhoon 9400 Phosphorimager.
Then, cells were lysed and a western blot with specific anti-cleaved PARP antibody was carried out as explained before.

A further data set has as its system HEK293/hGnRHR cells. As to the kind of experiment: Cell growth inhibition (viable cell number after 5 days of continuous treatment) in HEK293/hGnRHR cells. The conditions noted are these: for antiproliferative/apoptotic potency compared with GnRH I (in words) / fold more potent than GnRH I to induce cell death / inhibit cell growth: human receptor; for antiproliferative/apoptotic potency compared with GnRH I (in words): 5 days. The format is cell-based, human. The protocol: (§1) For the first method, HEK293 cells expressing various GnRH receptor constructs were seeded into 12-well PLL-coated plates at 50,000 cells (in 1 ml)/well and cultured with continuous GnRH exposure for five days, adding fresh peptide every day. Trypan Blue-excluding cells were then counted with a haemocytometer. For the second method, cells were seeded into 96-well plates at 5,000 cells (in 100 μl)/well and treated exactly as described before. 10 μl WST-1 reagent (Roche Diagnostics Ltd.; Lewes, East Sussex, UK) was added directly to each well and, after 3 h at 37° C., absorbance was read at 450 nm (with a reference at 690 nm) against a background control as blank using a microplate ELISA reader.
(§2) Bar graphs and curves were obtained using Prism 3.0 (GraphPad Software, Inc.: San Diego, Calif., USA). IC50 and EC50 values were determined by non-linear regression analysis. Curves were best-fitted to a one-site model. […] Values were normalised as specified in the figure legends.
(§3) Antiproliferation/apoptosis was estimated by determining cell number after five days of continuous exposure to the peptides. In parallel, this response was compared to the classical Gq coupled-PLCβ activation induced by GnRH peptides, as measured by the very well characterized inositol phosphates accumulation protocol. Both outputs were determined in two HEK293 cell lines; one expressing the rat receptor and the other expressing the human receptor. The human cell line was included in the study because this species may be clinically more relevant and the very low receptor expression may better reflect the in vivo tumoural state. In fact, due to poor binding, the precise affinity of the analogues on this cell line could not be determined.

For a further data set, the system named is HEK293/rGnRHR cells. As to the kind of experiment: Cell growth inhibition (viable cell number after 5 days of continuous treatment) in HEK293/rGnRHR cells. The format is cell-based, rat. The conditions noted are these: for antiproliferative/apoptotic potency compared with GnRH I (in words) / fold more potent than GnRH I to induce cell death / inhibit cell growth: rat receptor; for antiproliferative/apoptotic potency compared with GnRH I (in words): 5 days. The protocol: as §1, §2, §3

Data set [2] deals with T1, rat GnRH receptor (Rattus norvegicus, UniProt P30969).
T1 construct: expressed in transfected cells
T1 sequence (P30969 1-327): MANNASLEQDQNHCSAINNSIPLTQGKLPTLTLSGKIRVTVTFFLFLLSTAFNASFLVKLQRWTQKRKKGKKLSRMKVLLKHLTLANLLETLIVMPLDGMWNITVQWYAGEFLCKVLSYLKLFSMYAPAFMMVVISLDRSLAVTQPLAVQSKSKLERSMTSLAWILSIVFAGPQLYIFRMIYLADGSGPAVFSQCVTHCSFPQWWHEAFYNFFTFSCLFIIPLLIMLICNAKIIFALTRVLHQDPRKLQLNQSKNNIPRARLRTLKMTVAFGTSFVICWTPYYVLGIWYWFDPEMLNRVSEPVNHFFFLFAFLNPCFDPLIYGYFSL
Put plainly: Accumulation of total inositol phosphates (PLCβ activation) in HEK293/rGnRHR cells. The format is cell-based. The protocol: HEK293 cells stably expressing the GnRH receptor growing on 12-well PLL-coated plates were pre-labelled with 1 μCi/ml myo-[H3]inositol (Amersham) in inositol-free DMEM (Sigma) for 48 h. On the day of the experiment, cells were washed with assay buffer (140 mM NaCl, 20 mM HEPES, 8 mM glucose, 4 mM KCl, 1 mM MgCl2, 1 mM CaCl2, 1 mg/ml BSA), pre-incubated with 10 mM LiCl (in assay buffer) for 30 min, and stimulated with different concentrations of the peptides (in the same buffer) for 1 h at 37° C. Incubations were terminated by removing the culture medium and lysing the cells in ice cold 10 mM formic acid for 30 min. Inositol phosphates were extracted by chromatography with an anion exchange resin (AG® 1-X8, Bio-Rad) using 1 M ammonium formate and 0.1 M formic acid. Liquid scintillant was added to the final eluate and [3H]inositol phosphates were measured in the β-counter.
as §2

Data set [3] has as its target T1, rat GnRH receptor. As to the kind of experiment: Competition binding assay with [125I][His5,D-Trp6]GnRH I in HEK293/rGnRHR cells. The method, then: Cell monolayers growing on 12-well PLL-coated plates were incubated in binding buffer (10 mM HEPES, 1% BSA in DMEM) containing […] radioligand (100,000 cpm) and 10-6-10-12 M unlabelled ligand. Equilibrium was reached after incubation for 4 h at 4° C. Cells were then lysed in 0.1 M NaOH and the radioactivity in the extract was measured in a 1261 Wallac MultiGamma counter.
as §2

For the next data set, the target named is T2, human GnRH receptor (Homo sapiens, UniProt P30968).
T2 construct: expressed in transfected cells
T2 sequence (P30968 1-328): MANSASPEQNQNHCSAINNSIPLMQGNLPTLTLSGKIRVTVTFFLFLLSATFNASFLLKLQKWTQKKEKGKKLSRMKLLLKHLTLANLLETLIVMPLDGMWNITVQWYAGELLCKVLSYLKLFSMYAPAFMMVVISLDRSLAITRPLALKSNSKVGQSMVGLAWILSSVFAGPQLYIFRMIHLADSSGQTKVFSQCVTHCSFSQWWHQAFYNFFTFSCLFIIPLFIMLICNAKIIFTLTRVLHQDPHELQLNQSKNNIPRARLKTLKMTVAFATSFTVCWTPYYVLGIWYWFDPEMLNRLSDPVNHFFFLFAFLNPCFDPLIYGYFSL
Put plainly: Accumulation of total inositol phosphates (PLCβ activation) in HEK293/hGnRHR cells. The format is cell-based.

Where [4] appears, read: HEK293/human GnRH receptor cells.

Non-standard residues stand in square brackets, D forms with d. pGlu = O=C1CC[C@@H](C(=O)O)N1

Regarding `NCCOB(c1ccccc1)c1ccccc1` [2-APB, 2-aminoethyl-diphenilborinate], in data set [1] (inhibitor alone), the “PARP cleavage caused by the inhibitor itself (cytotoxicity)” value is recorded as “significant PARP cleavage by themselves”.
Take `COc1cc2ncnc(Nc3cccc(Cl)c3)c2cc1OC` [AG1478]: in data set [1], the “remaining GnRH I-induced PARP cleavage, mean±S.E.M.” value was 13±10 and the “remaining GnRH II-induced PARP cleavage, mean±S.E.M.” value is listed as 18±11.
For the compound `COc1ccc2c(c1)c(C1=C(c3c[nH]c4ccccc34)C(=O)NC1=O)cn2CCCN(C)C` [Gö 6983], in data set [1], the “remaining GnRH I-induced PARP cleavage, mean±S.E.M.” value was found to be 47±22; the “remaining GnRH II-induced PARP cleavage, mean±S.E.M.” value amounted to 35±18; the “effect on GnRH-induced apoptosis / caspase 3 activation (in words)” value is given as “clearly more efficient than Ro-31-8220”. Moreover, in data set [1] (discussion), the “extent of the effect upon GnRH-stimulated apoptosis” value is reported as around 40%.
On to `O=C1c2ccccc2-c2n[nH]c3cccc1c23` [JNKII inhibitor], for which, in data set [1], the “remaining GnRH I-induced PARP cleavage, mean±S.E.M.” value came out at 84±29 and the “remaining GnRH II-induced PARP cleavage, mean±S.E.M.” value stood at 72±22.
On to `COc1cccc(-c2cc(=O)c3ccccc3o2)c1N` [PD98059], for which, in data set [1], the “remaining GnRH I-induced PARP cleavage, mean±S.E.M.” value is listed as 17±6 and the “remaining GnRH II-induced PARP cleavage, mean±S.E.M.” value was found to be 14±13.
In the same order, the values of `CC(C)(C)n1nc(-c2ccc(Cl)cc2)c2c(N)ncnc21` [PP2] are 20±4 and 18±2.
As for `Cn1cc(C2=C(c3cn(CCCSC(=N)N)c4ccccc34)C(=O)NC2=O)c2ccccc21` [Ro-31-8220], in data set [1], the “effect on GnRH-induced apoptosis / caspase 3 activation (in words)” value is recorded as “no effect”.
For `CO[C@H]1[C@@H](OC)C[C@H](C)[C@@H](OC)C2=CC(=O)C=C(NC(=O)/C(C)=C/C=C\[C@H](OC)[C@@H](OC(N)=O)/C(C)=C/[C@@H]1C)C2=O` [herbimycin A], in data set [1], the “remaining GnRH I-induced PARP cleavage, mean±S.E.M.” value is 9±1 and the “remaining GnRH II-induced PARP cleavage, mean±S.E.M.” value was 41±4.
For the compound PTX: Gi inhibitor from Biomol, the “effect on GnRH-induced apoptosis / caspase 3 activation (in words)” value in data set [1] is reported as “not having any effect”.
Consider “[His5,Trp7]GnRH I: double mutant GnRH I incorporating His5 and Trp7 of GnRH II ([pGlu]HWSHGWRPG-NH2; ends and bridges not checked; UniProt P01148 24-33, looked up, variant Y5H L7W)”, for which the “antiproliferative/apoptotic potency compared with GnRH I (in words)” value with HEK293/hGnRHR cells and in the data set with HEK293/rGnRHR cells was “improved antiproliferative/apoptotic capacity” throughout.
“[His5,Tyr8]GnRH I: double mutant GnRH I incorporating His5 and Tyr8 of GnRH II ([pGlu]HWSHGLYPG-NH2; ends and bridges not checked; UniProt P01148 24-33, looked up, variant Y5H R8Y)”: the “potency to stimulate inositol phosphates accumulation / PLCβ activation compared with GnRH I (in words)” value is “features intermediate between GnRH I and [Tyr8]GnRH I” with rat GnRH receptor [2]; “features intermediate between GnRH I and [Tyr8]GnRH I” with human GnRH receptor. In the data set with rat GnRH receptor [3], the “affinity compared with GnRH I (in words)” value is “features intermediate between GnRH I and [Tyr8]GnRH I”. Also, the “antiproliferative/apoptotic potency compared with GnRH I (in words)” value in the data set with HEK293/hGnRHR cells and with HEK293/rGnRHR cells was “more potent to inhibit cell growth than GnRH I” throughout.
Consider “[His5]GnRH I: GnRH I with Tyr5 substituted by His5 of GnRH II (QHWSHGLRPG; Gonadoliberin-1; UniProt P01148 24-33, looked up, variant Y5H)”, for which the “potency to stimulate inositol phosphates accumulation / PLCβ activation compared with GnRH I (in words)” value with rat GnRH receptor [2] and with human GnRH receptor was “better potencies” in each case. Moreover, in the data set with rat GnRH receptor [3], the “affinity compared with GnRH I (in words)” value was “higher affinity than GnRH I”. Also, in the data set on HEK293/hGnRHR cells (setting [4]), the “antiproliferative potency (in words)” value is “most potent antiproliferative/apoptotic agent ever described”. Further, the “antiproliferative/apoptotic potency compared with GnRH I (in words)” value in the data set on HEK293/hGnRHR cells and in the data set on HEK293/rGnRHR cells was “better potencies” in each case.
In the case of “[Trp7,Tyr8]GnRH I: double mutant GnRH I incorporating Trp7 and Tyr8 of GnRH II ([pGlu]HWSYGWYPG-NH2; ends and bridges not checked; UniProt P01148 24-33, looked up, variant L7W R8Y)”, the “potency to stimulate inositol phosphates accumulation / PLCβ activation compared with GnRH I (in words)” value in the data set with rat GnRH receptor [2] and in the data set with human GnRH receptor was “almost identical to those of [Tyr8]GnRH I” each time. Moreover, in the data set with rat GnRH receptor [3], the “affinity compared with GnRH I (in words)” value was “almost identical to those of [Tyr8]GnRH I”. Further, the “antiproliferative/apoptotic potency compared with GnRH I (in words)” value in the data set with HEK293/hGnRHR cells and in the data set with HEK293/rGnRHR cells was “almost identical to those of [Tyr8]GnRH I” in each case.
Regarding “[Trp7]GnRH I: GnRH I with Leu7 replaced by Trp7 of GnRH II (QHWSYGWRPG; Gonadoliberin-1; UniProt P01148 24-33, looked up, variant L7W)”, the “potency to stimulate inositol phosphates accumulation / PLCβ activation compared with GnRH I (in words)” value with rat GnRH receptor [2] is “did not modify the affinity and PLCβ activation capacity”; in the data set with human GnRH receptor it was “did not modify the affinity and PLCβ activation capacity”. Also, the “affinity compared with GnRH I (in words)” value with rat GnRH receptor [3] was “did not modify the affinity and PLCβ activation capacity”. Also, the “fold more potent than GnRH I to induce cell death / inhibit cell growth” value with HEK293/hGnRHR cells is recorded as 19.3 fold; in the data set with HEK293/rGnRHR cells, 9.1 fold.
As to “[Tyr8]GnRH I: GnRH I with Arg8 substituted by Tyr8 of GnRH II (QHWSYGLYPG; Gonadoliberin-1; UniProt P01148 24-33, looked up, variant R8Y)”, the “fold less potent to stimulate PLCβ compared to GnRH I” value in the data set with rat GnRH receptor [2] turned out to be 27.3 fold. Besides, the “affinity compared with GnRH I (in words)” value in the data set with rat GnRH receptor [3] was “very low affinity”. Further, the “fold less potent to stimulate PLCβ relative to GnRH I” value with human GnRH receptor worked out at 23.7 fold. The “antiproliferative effect compared with inositol phosphate production, selectivity (in words)” value in the data set on HEK293/hGnRHR cells (setting [4]) was “most selective antiproliferative/apoptotic analogue”. Also, the “fold more potent than GnRH I to induce cell death / inhibit cell growth” value is on record as 10.7 fold with HEK293/hGnRHR cells and 4.2 fold in the data set with HEK293/rGnRHR cells. Moreover, in the data set on HEK293/rGnRHR cells (range across rat and human receptor cell lines (discussion)), the “fold more potent to suppress cell growth relative to GnRH I” value is 4-11 fold.
